Like-named read-outs stand apart in the source and are kept apart here.
Tests used:
[1] = Liver microsomal stability in vitro, cynomolgus monkey; type: in vitro ADME; conditions: for half-life at 1 μM: pH 7.4, cynomolgus monkey liver microsomes 0.5 mg protein/mL, 1 μM test compound, 37° C., read-out: Cynomolgus monkey T1/2
Description: (§1) Evaluation of in vitro liver microsomal stability of the compound of the present disclosure was tested by the following method:
(§2) Buffer: 100 mM potassium phosphate buffer, pH 7.4; […] MgCl2.
(§3) Liver microsomes: human liver microsomes, Corning Cat No. 452117; Rat liver microsomes, Xenotech Cat No. R1000; Mouse liver microsomes, Xenotech Cat No. M1000; Dog liver microsomes, Xenotech Cat No. D1000; Liver microsomes of cynomolgus monkey, Corning Cat No. 452413, the final concentration was 0.5 mg protein/mL.
(§4) 1. Intermediate solution: 5 μL of compound or control in stock solution (10 mM) was diluted with 495 μL of methanol (concentration: 100 μM, 99% MeOH).
(§5) 2. Operating solution: the intermediate solution was diluted […] with 450 μL 100 mM potassium phosphate buffer (concentration: 10 μM, 9.9% MeOH).
(§6) 1. 10 μL of compound or control solution per well was added to all plates (T0, T5, T10, T20, T30, T60, NCF60) except matrix blank.
(§7) 2. Microsome solution was distributed to 96-well plates according to platemap for standby, 680 μL per well, and the mixture of microsome solution and the compound was incubated at 37° C. for about 10 minutes.
4. After preheating, NADPH regeneration system was distributed to 96-well plate, 90 μL per well, for standby according to plate map, which was added to each plate to start the reaction, 10 μL per well. The final concentration of each component in the incubation medium includes: 0.5 mg protein/mL microsome, 1 μM test compound, […], 0.99% methanol and 0.01% DMSO.
6. The above-prepared stop solution (4° C. cooling) was added to stop the reaction, 300 μL per well.
9. During centrifugation, eight new 96-well plates were loaded with 300 μL of HPLC water, and then 100 μL of supernatant was transferred for mixing, followed by LC/MS/MS detection.
(§8) 10. Data analysis: The peak area of the corresponding compound and internal standard was detected by LC-MS/MS, and the T1/2 of the compound was calculated by the following formula: […]

[2] = Liver microsomal stability in vitro, mouse; type: in vitro ADME; conditions: pH 7.4; mouse liver microsomes 0.5 mg protein/mL, 1 μM test compound, 37° C.; read-out: Mouse T1/2
Description: as §1, §2, §3, §4, §5, §6, §7
4. […]
as §8

CYP3A4 = molecular target: T1, CYP3A4 (Homo sapiens, UniProt P08684); test: Inhibition of human liver microsomal CYP450 enzymes, CYP3A4; type: in vitro ADME; conditions: human liver microsomes, Reference = ketoconazole
T1 construct: from tissue; host or cells: human liver microsomes (HLM)
Description: 50 μL of supernatant from each well was transferred to a 96-well sample plate containing 50 μL of ultrapure water (Millipore, ZMQS50F01) for LC/MS analysis. […]

CYP2C19 = molecular target: T2, CYP2C19 (Homo sapiens, UniProt P33261); test: Inhibition of human liver microsomal CYP450 enzymes, CYP2C19; type: in vitro ADME; conditions: human liver microsomes, substrate S-Mephenytoin 35 μM; Reference = omeprazole; read-out: IC50 2C19
T2 construct: from tissue; host or cells: human liver microsomes (HLM)
Description: The inhibitory effects of the compound of the present disclosure on the CYP450 enzymes of six human subtypes were determined by the following experimental method:
Reference compounds of each subtype: CYP1A2: α-naphthoflavone; CYP2C9: sulfaphenazole; CYP2C19: omeprazole; CYP3A4: ketoconazole; CYP2D6: quinidine.
Substrate concentration: CYP1A2: Phenacetin at 30 μM; CYP2C9: Diclofenac at 10 μM; CYP2C19: S-Mephenytoin at 35 μM; CYP3A4: Midazolam at 5 μM and Testosterone at 80 μM; CYP2D6: Bufuralol at 10 μM.
6. 0.2 mg/mL of HLM was added to the test wells, 400 μL per well, and then the gradient diluted 400× test compound was added to the corresponding wells.
7. 0.2 mg/mL of HLM was added to the test wells, 200 μL per well, and then the gradient-diluted reference inhibitor was added to the corresponding wells. Steps 6 and 7 needed to be performed on ice.
8.1. 30 μL of test compound and reference compound were mixed in 0.2 mg/mL of HLM solution (see steps 6 and 7).
8.2. 15 μL of 4× substrate solution (see step 4) was added.
10. Preheated 8 mM of NADPH solution was added to the 96-well test plate (see step 3) to initiate the reaction, 15 μL per well.
11. The test plate was incubated at 37° C.: 3A4 for 5 minutes, each of 1A2, 2C9 and 2D6 for 10 minutes, and 2C19 for 45 minutes.
12. ACN containing internal reference was added to stop the reaction, 120 μL per well.
14. […]

[3] = molecular target: hERG potassium ion channel (Homo sapiens, UniProt Q12809); test: hERG potassium ion channel inhibitory activity (Qpatch, CHO-hERG cells); conditions: for inhibition at 2.5 min, 40 µM: human
Description: CHO-hERG cells were cultured in a 175 cm^2 flask, and when the cell density was increased to 60-80%, the medium was removed and washed with 7 mL of PBS (Phosphate Buffered Saline phosphate buffer), and then digested with 3 mL of Detachin.
The single-cell high impedance sealing and the whole-cell mode formation process were all automatically completed by the Qpatch instrument. After obtaining the whole-cell recording mode, the cells were clamped at −80 mV (millivolt). Before giving a 5-second+40 mV depolarization stimulus, a 50 ms-50 mV pre-voltage was first given, repolarized to −50 mV for 5 seconds, and then returned to −80 mV. This voltage stimulation was applied every 15 seconds. After recording for 2 minutes, extracellular fluid was given for 5 minutes, and then the administration process was started. The compound concentration started from the lowest test concentration, and each test concentration was given for 2.5 minutes. […] At least 3 cells were tested at each concentration (n≥3).
The 20 mM compound mother solution was diluted with extracellular fluid, and 5 μL of 20 mM compound mother solution was added to 2495 μL of extracellular solution, diluted 500-fold to 40 μM, and then sequentially performed 3-fold continuous dilution in an extracellular fluid containing 0.2% DMSO to obtain the final concentration to be tested.
The experimental data were analyzed by XLFit software.

Chain of hERG potassium ion channel (Q12809 whole entry): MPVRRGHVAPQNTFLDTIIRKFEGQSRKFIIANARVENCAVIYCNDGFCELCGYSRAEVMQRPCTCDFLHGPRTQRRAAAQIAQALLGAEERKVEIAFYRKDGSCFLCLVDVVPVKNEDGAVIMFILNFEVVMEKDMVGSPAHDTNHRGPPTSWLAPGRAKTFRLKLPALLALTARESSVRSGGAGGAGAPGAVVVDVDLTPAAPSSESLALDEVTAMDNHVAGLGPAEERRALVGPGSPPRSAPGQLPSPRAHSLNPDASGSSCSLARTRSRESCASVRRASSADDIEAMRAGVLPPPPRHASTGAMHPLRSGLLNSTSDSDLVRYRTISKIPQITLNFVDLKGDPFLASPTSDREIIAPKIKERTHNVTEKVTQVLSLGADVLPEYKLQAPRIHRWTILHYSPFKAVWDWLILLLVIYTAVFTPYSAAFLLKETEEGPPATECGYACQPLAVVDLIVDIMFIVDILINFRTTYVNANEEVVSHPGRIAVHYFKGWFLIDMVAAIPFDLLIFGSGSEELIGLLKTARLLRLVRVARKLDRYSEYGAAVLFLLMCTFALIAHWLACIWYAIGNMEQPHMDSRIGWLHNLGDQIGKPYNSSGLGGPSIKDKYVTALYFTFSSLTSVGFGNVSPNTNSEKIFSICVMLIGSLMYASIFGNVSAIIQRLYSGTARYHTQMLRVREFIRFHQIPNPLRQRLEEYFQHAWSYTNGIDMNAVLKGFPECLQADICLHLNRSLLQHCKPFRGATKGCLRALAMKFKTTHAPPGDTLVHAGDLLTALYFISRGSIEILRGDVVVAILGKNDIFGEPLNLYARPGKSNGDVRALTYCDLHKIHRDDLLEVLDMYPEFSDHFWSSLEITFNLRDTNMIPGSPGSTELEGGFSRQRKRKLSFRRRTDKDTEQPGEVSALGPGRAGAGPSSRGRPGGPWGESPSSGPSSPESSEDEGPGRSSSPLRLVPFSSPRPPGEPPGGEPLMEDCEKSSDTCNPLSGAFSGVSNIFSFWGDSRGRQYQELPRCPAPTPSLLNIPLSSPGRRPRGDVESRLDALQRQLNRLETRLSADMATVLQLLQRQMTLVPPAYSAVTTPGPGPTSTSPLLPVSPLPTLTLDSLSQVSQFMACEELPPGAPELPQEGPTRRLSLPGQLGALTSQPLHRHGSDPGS
T1 sequence (P08684 whole entry): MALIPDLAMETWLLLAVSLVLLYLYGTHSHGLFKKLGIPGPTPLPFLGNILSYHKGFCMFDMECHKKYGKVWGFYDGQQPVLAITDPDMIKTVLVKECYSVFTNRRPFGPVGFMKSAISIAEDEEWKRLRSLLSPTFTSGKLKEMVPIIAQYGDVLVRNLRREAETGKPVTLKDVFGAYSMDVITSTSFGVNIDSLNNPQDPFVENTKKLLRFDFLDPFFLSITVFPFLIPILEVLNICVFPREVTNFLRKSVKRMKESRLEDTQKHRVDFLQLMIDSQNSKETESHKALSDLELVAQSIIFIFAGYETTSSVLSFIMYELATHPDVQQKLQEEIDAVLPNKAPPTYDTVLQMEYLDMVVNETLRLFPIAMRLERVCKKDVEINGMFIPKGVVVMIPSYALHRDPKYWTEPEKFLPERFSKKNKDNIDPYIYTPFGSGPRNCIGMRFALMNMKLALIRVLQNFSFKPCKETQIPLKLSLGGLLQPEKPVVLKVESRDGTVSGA
T2 sequence (P33261 whole entry): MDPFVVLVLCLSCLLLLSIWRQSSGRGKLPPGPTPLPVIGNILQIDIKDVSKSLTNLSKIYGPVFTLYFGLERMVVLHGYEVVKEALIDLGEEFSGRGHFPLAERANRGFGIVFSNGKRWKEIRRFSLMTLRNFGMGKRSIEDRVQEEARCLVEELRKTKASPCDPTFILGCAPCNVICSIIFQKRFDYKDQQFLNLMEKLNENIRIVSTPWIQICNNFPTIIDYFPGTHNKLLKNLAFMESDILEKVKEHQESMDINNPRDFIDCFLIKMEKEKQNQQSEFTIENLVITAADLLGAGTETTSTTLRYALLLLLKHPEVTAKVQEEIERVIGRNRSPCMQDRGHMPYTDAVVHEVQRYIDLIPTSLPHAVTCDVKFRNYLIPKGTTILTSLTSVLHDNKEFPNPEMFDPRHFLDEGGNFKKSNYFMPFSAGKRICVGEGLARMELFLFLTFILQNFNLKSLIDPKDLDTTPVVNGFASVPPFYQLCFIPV

metabolic stability in cynomolgus monkey liver microsomes, in words ([1]; cynomolgus monkey liver microsomes) | IC50 (CYP3A4; substrate Midazolam 5 μM, read-out: IC50 3A4 (Midazolam)) | IC50 (CYP3A4; substrate Testosterone 80 μM, read-out: IC50 3A4 (Testosterone)) | SMILES | half-life at 1 μM [1] | half-life at 1 μM [2] | IC50 (CYP2C19) | IC50 [3] | inhibition at 2.5 min, 40 µM [3] | inhibition at 2.5 min, 40 µM ([3]; CHO cells that express hERG (CHO-hERG))
excellent metabolic stability | > 10 µM | > 10 µM | NC(=O)c1cccc2cn(-c3ccc([C@]4(F)CCCNC4)cc3)nc12 (single isomer, unassigned) [Example 23, (R or S)-2-(4-(3-fluoropiperidin-3-yl)phenyl)-2H-indazole-7-carboxamide] | 1.03 h | 1.02 h | > 10 µM | > 40 µM | 29.8% | 
 |  |  | NC(=O)c1cccc2cn(-c3ccc([C@@H]4CCCNC4)cc3)nc12 [Niraparib, reference compound] | 0.967 h | 1.83 h | > 10 µM | 39.6 µM |  | 50.4%
